# Data reported in US7087248B2, “Pharmaceutical component based on human parathyroid hormone and a pharmaceutical composition for intranasal administration comprising the component” (Daiichi Asubio Pharma Co., Ltd., priority 2000, dated 2006).
# Tested on: nasal cavity
# Experiment: Sensory test (1): odor and irritation evoked by nasal spraying
# Conditions: 0.6 w/v % aqueous solution sprayed into the nasal cavity; four healthy normal adult males
# Description: As the control, physiological saline was used.
# Then, aqueous solutions of various organic acids were prepared, in order to identify the factors responsible for the odor and irritation the preparation evokes when it is applied in the nasal cavity. The organic acid employed included acetic acid, citric acid and tartaric acid; oxalic acid; malic acid; phthalic acid; ascorbic acid; adipic acid; and glycolic acid.
# Prepared were 0.1 v/v %, 0.2 v/v %, 0.3 v/v % and 0.6 v/v % aqueous solutions of acetic acid, and 0.6 w/v % aqueous solutions of citric acid, tartaric acid, oxalic acid, malic acid, phthalic acid, ascorbic acid, adipic acid, and glycolic acid. The solution was sprayed into the nasal cavity; and the odor and irritation were assessed in the same manner as above (testers consisting of four healthy normal adult males).
# In the same manner as above, the test solution was applied in the nasal cavity, and the odor and irritation evoked thereby were assessed (testers consisting of 12 healthy normal adult males).
row,SMILES,Irritability
1,O=C(O)C(=O)O [Oxalic acid],++++
2,O=C1O[C@H]([C@@H](O)CO)C(O)=C1O [Ascorbic acid],the same with that from physiological saline and +
3,O=C(O)CC(O)C(=O)O (stereo not drawn) [Malic acid],++++
4,O=C(O)CO [Glycolic acid],the same with that from physiological saline and +

# Same assay, conditions: in vivo
row,SMILES,Irritability
1,O=C(O)c1ccccc1C(=O)O [Phthalic acid],+++
2,O=C(O)C(O)C(O)C(=O)O (stereo not drawn) [Tartaric acid],++++
